# Results: publication PMC2362735, “New semisynthetic vinca alkaloids: chemical, biochemical and cellular studies” (British Journal of Cancer, 1999)
# pIC50: −log10 of the molar value.
# Assays:
# tubulin = experiment: Taxol-induced tubulin polymerization, turbidity at 350 nm; assay type: biochemical, calf; conditions: taxol-induced assembly, MES buffer pH 6.8, 37C; average of three independent measurements; read-out: Anti-tubulin effect, turbidity at 350 nm, IC50
# Source text: The numerous antimitotic drugs already developed and therapeu- tically used for a large number of pathologies belong to different classes based on their chemical structure and other distinctive features. Antimitotic drugs usually target the tubulin/microtubule network of the cytoskeleton that is formed by assembly of cyto- plasmic tubulin dimers. The stability of the different microtubular structures varies considerably; some of their functions depend on their lability. The lability is augmented by the extreme sensitivity to various drugs. Several synthetic and natural compounds interact specifically with tubulin and/or microtubule, fundamentally destroying its dynamic character and leading to cell death. […] Because of their extensive clinical use, it is important to synthesize additional agents having at least the same biological activity. […] Nevertheless, it is unclear yet how the anti-calmodulin activity of these drugs is related to their desired and undesired pharmacological effects. […] The synthesis of the KAR derivatives are presented. […] Taxol, GTP and trifluoperazine were purchased from Sigma. All organic reagents for synthesis of the new compounds were obtained from Aldrich and were of the highest grade. All other chemicals were reagent grade commercial preparations. […] Tubulin was stored in 1 M sucrose, 10 mM sodium phosphate buffer, 0.5 mM magnesium chloride and 0.1 mM GTP, pH 7.0, at -80C and dialysed against the appropriate buffer before use. […] PFK, aldolase and glycerol-3-phosphate dehydrogenase- triosephosphate isomerase purified from rabbit skeletal muscle were purchased in ammonium sulphate suspensions from Sigma or Boehringer. The enzyme suspensions were centrifuged at 10 000g for 5 min. The pellets were suspended in the appropriate buffer, then the enzymes were gel filtered or dialysed in the same buffer to remove ammonium sulphate. […] (Figure 1B; R1 , CH3; R2 , CH2 CH2 Cl). […] After 2 h incubation at room temperature, 200 ml dried toluene was added to the reaction mixture. […] The mixture was stirred for 30 min. After separation of the organic phase, it was washed with water (3 x 30 ml) and dried with potassium sulphate and evaporated on a water bath of 35-40C at 20-27 hPa. The resulting material was chromatographed on silica gel (500 g, bead size of 0.040- 0.063 mm) column (30 mm x 500 mm) using ethyl acetate/ethanol (9:1) mixture as eluent. […] The mixture was kept for 4 h at room temperature and then evaporated on a water bath at 40C under a vacuum of 80 hPa to a final volume of 5-6 ml. […] (Figure 1B, R1 , CHO; R2 , CH2 CH2 Cl). […] Synthesis of KAR-4 [3-allyl-2,4-dioxo-3,5-spiro-oxazolidino- 4-deacetoxy-vinblastine] (Figure 1B; R1 , CH3; R2 , CH2 CH=CH2 ). […] NMR measurements were carried out on a Varian Unity plus-500 instrument (500 MHz for 1H and 125 MHz for 13C) in DMSO. Chemical shifts were determined relative to dTMS = 0.00 p.p.m. 1H and 13C signal assignments were verified by a concerted use of two-dimensional 1H-1H and 1H-13C shift correlation methods (DQFCOSY, HSQC, HMBC) and NOESY experiments. The gradient-enhanced DQFCOSY, HSQC, HMBC and NOESY experiments were recorded by using the standard spectrometer software package. A mixing time of tmix = 0.5 s was used for the NOESY experiments.
# [1] = tested on: Mouse leukaemia P388 cells; parameters: method as in Orosz et al (1997a); conditions: P388, single doses i.p.; data published also in ref Orosz et al (1997a); cited from earlier work
# mouse leukaemia P388 = tested on: mouse leukaemia P388; parameters: method as in Orosz et al, 1997a; conditions: ref Orosz et al, 1997a, cited from earlier work
compound,measurement,setting,value
"CC[C@]1(O)C[C@@H]2CN(CCc3c([nH]c4ccccc34)[C@@](C(=O)OC)(c3cc4c(cc3OC)N(C)[C@@H]3[C@]45CCN4CC=C[C@@](CC)(C[C@@]36OC(=O)N(CCCl)C6=O)[C@H]45)C2)C1 [KAR-2, 3′-(β-chloroethyl)-2′,4′-dioxo-3,5′-spiro-oxazolidino-4-deacetoxy-vinblastine]",pIC50,tubulin,6.70
same,Dose (mg kg-1) giving the maximal effect,[1],60 mg/kg
same,Maximal effect T/C (%),[1],207%
same,T/C,"mouse leukaemia P388; P388, 1 mg kg-1, eightfold treatment",174%
same,neurotoxic side-effects (e.g. paralysis of bladder or lower extremities),mouse leukaemia P388; P388 in vivo tests,did not induce neurotoxic side-effects
